The source of these data is US10618903B2, “Heteroaryl substituted aminopyridine compounds” (BRISTOL-MYERS SQUIBB COMPANY, priority 2015, dated 2020).

For one experiment, the target named is IRAK4 (Homo sapiens (Human), UniProt Q9NWZ3). Put plainly: IRAK4 Inhibition Assay. It counts as biochemical. The following applies: ATP 500 μM; IRAK4 0.6 nM. Put shortly:
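Mobility-shift readout: phosphorylated and unphosphorylated fluorescent peptide (1.5 μM) resolved by electrophoresis after a 60 min room-temperature reaction stopped with EDTA. Reaction holds 0.6 nM IRAK4, 500 μM ATP and 1.6% DMSO in HEPES pH 7.2/MgCl2/Brij 35/DTT buffer; percent inhibition set against vehicle and no-enzyme controls.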

The subject of experiment [1] is IL-6 levels in human whole blood stimulated with a TLR2 agonist. Nature of the experiment: IRAK4 Whole Blood Assay (lipoteichoic acid/TLR2-stimulated IL-6). It counts as cell-based. The following applies: Homo sapiens, lipoteichoic acid 10 μg/mL, IL-6 readout. Here is the method: Human whole blood containing the anti-coagulant ACD-A was plated in 384-well plate (25 μL/well) and incubated with compounds for 60 minutes at 37° C. in a 5% CO2 incubator. The blood was stimulated with a TLR2 agonist, 10 μg/mL final concentration of lipoteichoic acid (Invivogen, San Diego, Calif.) in 25 μL RPMI (Gibco) for 5 hours in a 5% CO2 incubator. At the end of the incubation, plates were centrifuged at 2300 rpm for 5 minutes. Supernatants were harvested and analyzed for IL-6 levels by Flow Cytometry beads assay (BD Biosciences, San Jose, Calif.).

By IC50 is commonly meant the concentration at which inhibition is half-maximal. As a reminder, the EC50 is the midpoint of the concentration-response curve.

IRAK4, sequence (Q9NWZ3 whole entry): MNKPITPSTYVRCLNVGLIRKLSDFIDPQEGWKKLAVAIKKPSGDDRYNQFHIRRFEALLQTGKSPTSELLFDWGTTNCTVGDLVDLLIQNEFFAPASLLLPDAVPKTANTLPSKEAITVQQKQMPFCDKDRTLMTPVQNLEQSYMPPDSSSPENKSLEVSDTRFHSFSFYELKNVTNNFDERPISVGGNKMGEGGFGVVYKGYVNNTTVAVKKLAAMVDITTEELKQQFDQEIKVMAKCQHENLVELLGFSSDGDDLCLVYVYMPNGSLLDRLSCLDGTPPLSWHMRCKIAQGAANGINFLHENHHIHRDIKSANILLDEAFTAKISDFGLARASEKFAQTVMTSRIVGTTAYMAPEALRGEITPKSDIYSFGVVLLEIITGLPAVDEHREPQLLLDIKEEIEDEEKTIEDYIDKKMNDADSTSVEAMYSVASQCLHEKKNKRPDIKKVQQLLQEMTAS

In the case of `CC(C)(O)[C@H](F)CNC(=O)c1cnc(-c2cnn3cc(Cl)cnc23)cc1Nc1cccc(C#N)c1F` [Example 35, (R)-6-(6-chloropyrazolo[1,5-a]pyrimidin-3-yl)-4-((3-cyano-2-fluorophenyl)amino)-N-(2-fluoro-3-hydroxy-3-methylbutyl)nicotinamide], at IRAK4, the IC50 is 2 nM. This molecule yielded an EC50 in experiment [1] of 2440 nM.
Taken in the same sequence, the figures for `O=C(N[C@H]1CC[C@H](C(=O)NC2CC2)CC1)c1cnc(-c2cnn3cc(Cl)cnc23)cc1NC1COC1` [Example 41, 6-(6-chloropyrazolo[1,5-a]pyrimidin-3-yl)-N-((1r,4r)-4-(cyclopropylcarbamoyl)cyclohexyl)-4-(oxetan-3-ylamino)nicotinamide] were 7 nM and 350 nM.
The corresponding values for `CC(C)(O)[C@H](F)CNC(=O)c1cnc(-c2cnn3cc(Cl)cnc23)cc1NCC1(O)CCC1` [Example 51, (R)-6-(6-chloropyrazolo[1,5-a]pyrimidin-3-yl)-N-(2-fluoro-3-hydroxy-3-methylbutyl)-4-(((1-hydroxycyclobutyl)methyl)amino)nicotinamide] are 10 nM and 1250 nM.
The corresponding values for `[2H]C([2H])([2H])OC(C)(C)[C@H](F)CNC(=O)c1cnc(-c2cnn3cc(Cl)cnc23)cc1NC(C)C` [Example 57, (R)-6-(6-chloropyrazolo[1,5-a]pyrimidin-3-yl)-N-(2-fluoro-3-trideuteromethoxy-3-methylbutyl)-4-(isopropylamino)nicotinamide] are 3 nM and 2340 nM.
As for `CC(C)(O)[C@H](F)CNC(=O)c1cnc(-c2cnn3cc(Cl)cnc23)cc1NC12CC(C1)C2` [Example 75, (R)-4-(bicyclo[1.1.1]pentan-1-ylamino)-6-(6-chloropyrazolo[1,5-a]pyrimidin-3-yl)-N-(2-fluoro-3-hydroxy-3-methylbutyl)nicotinamide], at IRAK4, the IC50 amounted to 2 nM. The molecule also displayed an EC50 in experiment [1] of 1460 nM.
Taken in the same sequence, the figures for `CC1(Nc2cc(-c3cnn4cc(Cl)cnc34)ncc2C(=O)NC[C@@H](F)C(C)(C)O)CC1` [Example 80, (R)-6-(6-chloropyrazolo[1,5-a]pyrimidin-3-yl)-N-(2-fluoro-3-hydroxy-3-methylbutyl)-4-((1-methylcyclopropyl)amino)nicotinamide] were 6 nM and 840 nM.
Take `C[C@H](CO)Nc1cc(-c2cnn3cc(C#N)cnc23)ncc1C(=O)NC[C@@H](F)C(C)(C)O` [Example 98, 6-(6-cyanopyrazolo[1,5-a]pyrimidin-3-yl)-N—((R)-2-fluoro-3-hydroxy-3-methylbutyl)-4-(((R)-1-hydroxypropan-2-yl)amino)nicotinamide]: the IC50 at IRAK4 is 6 nM. This molecule also returned an EC50 in experiment [1] of 860 nM.
The corresponding values for `CC(C)(O)[C@H](F)CNC(=O)c1cnc(-c2cnn3cc(C#N)cnc23)cc1NC1COC1` [Example 99, (R)-6-(6-cyanopyrazolo[1,5-a]pyrimidin-3-yl)-N-(2-fluoro-3-hydroxy-3-methylbutyl)-4-(oxetan-3-ylamino) nicotinamide] are 4 nM and 600 nM.
The corresponding values for `CC(C)(O)[C@H](F)CNC(=O)c1cnc(-c2cnn3cc(C#N)cnc23)cc1N[C@@H](CO)Cc1ccccc1` [Example 101, 6-(6-cyanopyrazolo[1,5-a]pyrimidin-3-yl)-N—((R)-2-fluoro-3-hydroxy-3-methylbutyl)-4-(((R)-1-hydroxy-3-phenylpropan-2-yl)amino)nicotinamide] are 7 nM and 1640 nM.
Taken in the same sequence, the figures for `CC(C)(O)[C@H](F)CNC(=O)c1cnc(-c2cnn3cc(C#N)cnc23)cc1N[C@@H]1CCN(c2ncc(F)cn2)C1` [Example 109, 6-(6-cyanopyrazolo[1,5-a]pyrimidin-3-yl)-N—((R)-2-fluoro-3-hydroxy-3-methylbutyl)-4-(((R)-1-(5-fluoropyrimidin-2-yl)pyrrolidin-3-yl)amino)nicotinamide] were 5 nM and 440 nM.
Regarding `CC(C)(O)[C@H](F)CNC(=O)c1cnc(-c2cnn3cc(C#N)cnc23)cc1Nc1cccc(C(N)=O)c1` [Example 111, (R)-4-((3-carbamoylphenyl)amino)-6-(6-cyanopyrazolo[1,5-a]pyrimidin-3-yl)-N-(2-fluoro-3-hydroxy-3-methylbutyl)nicotinamide], the IC50 at IRAK4 is 3 nM. The EC50 in experiment [1] came out at 900 nM.
The corresponding values for `CC(C)(CO)Nc1cc(-c2cnn3cc(C#N)cnc23)ncc1C(=O)NC[C@@H](F)C(C)(C)O` [Example 114, (R)-6-(6-cyanopyrazolo[1,5-a]pyrimidin-3-yl)-N-(2-fluoro-3-hydroxy-3-methylbutyl)-4-((1-hydroxy-2-methylpropan-2-yl)amino)nicotinamide] are 3 nM and 480 nM.
The corresponding values for `CC(C)(O)[C@H](F)CNC(=O)c1cnc(-c2cnn3cc(C#N)cnc23)cc1N[C@@H]1CCN(c2ncccn2)C1` [Example 118, 6-(6-cyanopyrazolo[1,5-a]pyrimidin-3-yl)-N—((R)-2-fluoro-3-hydroxy-3-methylbutyl)-4-(((R)-1-(pyrimidin-2-yl)pyrrolidin-3-yl)amino)nicotinamide] are 9 nM and 710 nM.
Taken in the same sequence, the figures for `CC(C)(O)[C@H]1CC[C@H](NC(=O)c2cnc(-c3cnn4cc(C#N)cnc34)cc2NC2COC2)CC1` [Example 120, 6-(6-cyanopyrazolo[1,5-a]pyrimidin-3-yl)-N-((1r,4r)-4-(2-hydroxypropan-2-yl)cyclohexyl)-4-(oxetan-3-ylamino)nicotinamide] were 9 nM and 800 nM.
Regarding `CC(C)Nc1cc(-c2ccn(-c3ccncc3)n2)ncc1C(=O)NC[C@@H](F)C(C)(C)O` [Example 156, (R)—N-(2-fluoro-3-hydroxy-3-methylbutyl)-4-(isopropylamino)-6-(1-(pyridin-4-yl)-1H-pyrazol-3-yl)nicotinamide], the IC50 at IRAK4 came out at 14 nM. In experiment [1], this molecule yielded an EC50 of 2340 nM.
Taken in the same sequence, the figures for `CC(C)Nc1cc(-c2cnn3cc(Cl)cnc23)ncc1C(=O)NC[C@@H](F)C(C)(C)OC(F)F` [Example 157, (R)-6-(6-chloropyrazolo[1,5-a]pyrimidin-3-yl)-N-(3-(difluoromethoxy)-2-fluoro-3-methylbutyl)-4-(isopropylamino)nicotinamide] were 3 nM and 930 nM.
The corresponding values for `CC(F)CCNc1cc(-c2cnn3cc(Cl)cnc23)ncc1C(=O)NC[C@@H](F)C(C)(C)O` (stereo partly drawn) [Example 160, 6-(6-chloropyrazolo[1,5-a]pyrimidin-3-yl)-N—((R)-2-fluoro-3-hydroxy-3-methylbutyl)-4-((3-fluorobutyl)amino)nicotinamide] are 6 nM and 810 nM.
The corresponding values for `CO[C@H]1CC[C@H](Nc2cc(-c3cnn4cc(Cl)cnc34)ncc2C(=O)NC[C@@H](F)C(C)(C)O)CC1` [Example 165, 6-(6-chloropyrazolo[1,5-a]pyrimidin-3-yl)-N—((R)-2-fluoro-3-hydroxy-3-methylbutyl)-4-(((1r,4R)-4-methoxycyclohexyl)amino)nicotinamide] are 6 nM and 470 nM.
Regarding `CCO[C@H]1CC[C@H](NC(=O)c2cnc(-c3cnn4cc(Cl)cnc34)cc2NC(C)C)CC1` [Example 166, 6-(6-chloropyrazolo[1,5-a]pyrimidin-3-yl)-N-((1r,4r)-4-ethoxycyclohexyl)-4-(isopropylamino)nicotinamide], the IC50 at IRAK4 amounted to 5 nM. In experiment [1], this molecule displayed an EC50 of 660 nM.
